Reference: patent publication US11008346B2, “Beta-lactamase inhibitors” (priority 2014, dated 2021)

Assays:
[1] = target: T1, VIM-2 metallo β-lactamase (Pseudomonas aeruginosa, UniProt Q9K2N0); test: β-lactamase enzyme inhibition, VIM-2; assay type: biochemical; settings: Nitrocefin 100 μM, 486 nm; 15 min at 37° C. preincubation; read-out: IC50 VIM-2 (Class B)
T1 construct: made in house; host or cells: E. coli BL21(DE3)
Experimental: For VIM-2 metallo β-lactamase, the procedure was identical with the following exceptions, first the protein was not pH adjusted to pH 5 with 50 mM sodium acetate. Second, the chromatography step was changed to a 5 ml Q sepharose anion exchange column pre-equilibrated with 50 mM Hepes pH 7.5, and elution of the protein was achieved by a linear gradient of NaCl (0-600 mM). Finally, the VIM-2 purification required a second run (3rd step) on the Q sepharose anion exchange column to achieve acceptable purity (>90%).
(§1) An equal volume of diluted enzyme stock was added, and the plates were incubated at 37° C. for 15 min. Nitrocefin was used as substrate for p99 AmpC, VIM-2 and OXA-1 and dispensed into each well at a final concentration of 100 μM. Absorbance at 486 nm was immediately monitored for 10 min using a Biotek Powerwave XS2 microplate spectrophotometer using the GEN5 software package (Biotek Instruments, Winooski Vt.). In an analogous fashion, imipenem was used as substrate for KPC-2 and Cefotaxime was used for SHV-5, while changes in absorbance upon hydrolysis of the β-lactam ring were monitored at 300 nm and 260 nm respectively in UV-transparent 96-well microtiter assay plates. Maximum rates of hydrolysis were compared to those in control wells (without inhibitors), and percentages of enzyme inhibition were calculated for each concentration of inhibitor. The concentration of inhibitor needed to reduce the initial rate of hydrolysis of substrate by 50% (IC50) was calculated as the residual activity of β-lactamase at 486 nm using GraFit version 7 kinetics software package (Erithacus Software, Surrey, UK).
(§2) Using the methodology described above, examples of the current invention were evaluated for their ability to inhibit β-lactamase enzymes from all four Ambler classifications (A through D). […] NT=Not tested.

[2] = tested on: E. cloacae 144200 expressing Class C P99 AmpC; test: broth microdilution MIC, E. cloacae P99; assay type: cell-based; settings: Fixed CAZ (ceftazidime) 4 μg/mL
Text: (§3) To determine the ability of test compounds to potentiate the inhibition of the growth of bacterial strains that produce beta-lactamase enzymes, classic cell based broth microdilution MIC assays were employed. Six bacteria strains producing beta-lactamase enzymes were used: E. coli expressing the Class A Extended Spectrum Beta-Lactamase (ESBL) CTX-M-15, E. cloacae expressing the Class C P99, K. pneumoniae expressing the Class A carbapenemase KPC-3, P. aeruginosa expressing the Class B carbapenemase VIM-2, K pneumoniae expressing the class A carbapenemase KPC-2 and the class B carbapenemase VIM-4, and S. aureus producing the Class A penicillinase PC-1. The assay was conducted in Cation Adjusted Mueller Hinton Broth (CAMHB, BD #212322, BD Diagnostic Systems, Sparks, Md.). Bacteria strains were grown for 3-5 hours in CAMBH broth. Test compounds were added to a microtiter plate in 2-fold serial dilutions in CAMHB in a final concentration range of 32 μg/mL to 0.25 μg/ml. An overlay of CAMHB containing a Beta-lactam was added to the compounds at a final static concentration of 4 μg/ml. […] In addition to the titration of test compounds the MICs of a panel of control beta-lactams is also tested to ensure the strains are behaving consistently from test to test. Once the test compound and antibiotics are added the plates can be inoculated according to CLSI broth microdilution method. After inoculation the plates are incubated for 16-20 hours at 37° C., then the Minimal Inhibitory Concentration (MIC) of the test compound is determined visually.
(§4) Using the methodology described above, examples of the current invention were evaluated for their ability to inhibit the growth of β-lactamase-producing bacteria in the presence of a β-lactam antibiotic.
(§5) Representative results are shown in Table 4 where A represents an MIC of the fixed β-lactam antibiotic in the presence of >32 µg/mL of a β-lactamase inhibitor of exemplary compounds, B represents the MIC in the presence of between 8 and 32 µg/mL of a β-lactamase inhibitor of exemplary compounds, and C represents the MIC in the presence of ≤4 µg/mL of a β-lactamase inhibitor of exemplary compounds. NT=Not Tested.

SHV-5 β-lactamase = target: T2, SHV-5 β-lactamase (Klebsiella pneumoniae, UniProt P0A3M1); test: β-lactamase enzyme inhibition, SHV-5; assay type: biochemical
T2 construct: made in house; host or cells: E. coli BL21(DE3)
Experimental: (§6) For SHV-5, Kpc-2, p99AmpC and OXA-1 β-lactamases, E. coli BL21(DE3) bacterial cells carrying expression plasmids (expressed as native untagged proteins) for the individual β-lactamases were grown in 1 L of Superbroth (Teknova Inc. Hollister, Calif.) supplemented with 100 μg/ml kanamycin selection and 1×5052 (0.5% glycerol, 0.05% glucose and 0.2% α-lactose) at 35° C. for 18-20 hours. Cells were harvested by centrifugation (4,000×g, 4° C., 20 min), resuspended in 50 ml of 10 mM HEPES pH 7.5 ( 1/20 of the initial volume). The cells were lysed by sonication (5 pulses of 45 seconds) at 45 W on ice. The lysates were clarified by centrifugation at 10,000×g for 40 minutes at 4° C. Samples were diluted 5-fold in 50 mM sodium acetate pH 5.0, stored overnight at 4° C., after which they were centrifuged at 10,000×g for 30 minutes to clarify, and filtered through 0.45 μm filters. The samples were loaded onto a 5 ml Capto S sepharose cation exchange column (GE Healthcare) pre-equilibrated with 50 mM sodium acetate pH 5.0. The column was washed with 5 column volumes of 50 mM sodium acetate pH 5.0 to wash out unbound protein and a linear gradient of NaCl (0 to 500 mM) was used to elute the protein (over 16 CV) from the column. Fractions were assayed for […] activity using Centa (Calbiochem, Gibbstown, N.J.) or Nitrocefin (EMD Millipore chemicals, Darmstadt, Germany) as a reporter β-lactamase substrate for activity in the isolated fractions. Active fractions were pooled, concentrated and further purified by gel filtration chromatography on a Superdex 75 prep grade gel filtration column (GE Healthcare, Piscataway, N.J.) pre-equilibrated in 50 mM Hepes pH 7.5, 150 mM NaCl. Active fractions were pooled, concentrated, and quantitated by BCA protein determination (Thermo Scientific, Rockford, Ill.), dialyzed into PBS and frozen at −80° C. in 20% glycerol until use.
as §1, §2

p99 AmpC β-lactamase = target: T3, p99 AmpC β-lactamase (Enterobacter cloacae, UniProt P05364); test: β-lactamase enzyme inhibition, p99 AmpC; assay type: biochemical
T3 construct: made in house; host or cells: E. coli BL21(DE3)
Experimental: as §6, §1
Using the methodology described above, examples of the current invention were evaluated for their ability to inhibit β-lactamase enzymes from all four Ambler classifications (A through D).

[3] = tested on: K. pneumoniae A-1797 expressing KPC-2 and VIM-4; test: broth microdilution MIC, K. pneumoniae KPC-2 and VIM-4; assay type: cell-based; settings: Fixed Mero (meropenem) 4 μg/mL
Text: as §3, §4, §5

[4] = tested on: K. pneumoniae 156319 expressing KPC-3; test: broth microdilution MIC, K. pneumoniae KPC-3; assay type: cell-based; settings: Fixed Mero (meropenem) 4 μg/mL
Text: as §3, §4, §5

KPC-2 β-lactamase = target: T4, KPC-2 β-lactamase (Klebsiella pneumoniae, UniProt Q9F663); test: β-lactamase enzyme inhibition, KPC-2; assay type: biochemical; settings: imipenem substrate, 300 nm; 15 min at 37° C. preincubation; read-out: IC50 KPC-2 (Class A)
T4 construct: made in house; host or cells: E. coli BL21(DE3)
Experimental: as §6, §1, §2

[5] = tested on: E. coli ESBL4 expressing CTX-M-15; test: broth microdilution MIC, E. coli CTX-M-15; assay type: cell-based; settings: Fixed CAZ (ceftazidime) 4 μg/mL
Text: as §3, §4, §5

T4 sequence (Q9F663 25-293, looked up): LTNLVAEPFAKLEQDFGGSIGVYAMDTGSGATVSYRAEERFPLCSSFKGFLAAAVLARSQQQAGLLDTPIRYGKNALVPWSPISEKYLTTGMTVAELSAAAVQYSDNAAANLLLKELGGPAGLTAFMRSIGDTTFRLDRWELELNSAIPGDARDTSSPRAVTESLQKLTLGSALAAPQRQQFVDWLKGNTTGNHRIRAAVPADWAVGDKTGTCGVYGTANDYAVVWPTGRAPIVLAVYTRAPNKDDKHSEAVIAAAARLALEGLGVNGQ
T3 sequence (P05364 21-381): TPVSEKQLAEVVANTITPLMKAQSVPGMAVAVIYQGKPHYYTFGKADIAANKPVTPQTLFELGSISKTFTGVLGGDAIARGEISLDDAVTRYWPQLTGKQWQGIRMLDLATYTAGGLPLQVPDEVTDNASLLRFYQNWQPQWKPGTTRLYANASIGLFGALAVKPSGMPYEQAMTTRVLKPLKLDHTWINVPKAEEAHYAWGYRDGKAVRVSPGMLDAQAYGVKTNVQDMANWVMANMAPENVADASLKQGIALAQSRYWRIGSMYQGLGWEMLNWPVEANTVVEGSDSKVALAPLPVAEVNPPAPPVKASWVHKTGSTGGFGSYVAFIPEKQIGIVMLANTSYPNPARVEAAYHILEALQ
T2 sequence (P0A3M1 22-286): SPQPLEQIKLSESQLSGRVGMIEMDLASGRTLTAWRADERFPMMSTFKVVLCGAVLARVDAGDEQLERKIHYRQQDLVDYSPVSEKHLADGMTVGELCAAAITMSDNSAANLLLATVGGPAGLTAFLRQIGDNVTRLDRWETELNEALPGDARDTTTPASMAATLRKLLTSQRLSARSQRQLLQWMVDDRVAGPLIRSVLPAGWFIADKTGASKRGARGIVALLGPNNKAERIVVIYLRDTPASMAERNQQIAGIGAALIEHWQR

For CN(C)S(=O)(=O)CCC(=O)N[C@H]1Cc2cccc(C(=O)O)c2OB1O [Example 55, (R)-3-(3-Dimethylsulfamoyl-propionylamino)-2-hydroxy-3,4-dihydro-2H-benzo[e][1,2]oxaborinine-8-carboxylic acid], the IC50 [1] was 1000 to 10000 nM, the “MIC of exemplary compounds in presence of fixed β-lactams, E. cl. 144200 p99 AmpC” value (“MIC … E. cl. 144200 p99 AmpC” below) [2] was “C (C represents the MIC in the presence of ≤4 g/mL of a β-lactamase inhibitor)” and the IC50 (SHV-5 β-lactamase) was under 100 nM. The IC50 (p99 AmpC β-lactamase) was under 100 nM, the “MIC of exemplary compounds in presence of fixed β-lactams, K.P. A-1797 KPC-2 VIM-4” value (from here on “MIC … K.P. A-1797 KPC-2 VIM-4”) [3] was “B (B represents the MIC in the presence of between 8 and 32 g/mL of a β-lactamase inhibitor)” and the “MIC of exemplary compounds in presence of fixed β-lactams, K.P. 156319 KPC-3” value (“MIC of exemplary compounds … K.P. 156319 KPC-3” below) [4] was “C (C represents the MIC in the presence of ≤4 g/mL of a β-lactamase inhibitor)”. For the same compound, the IC50 (KPC-2 β-lactamase) was under 100 nM and the “MIC of exemplary compounds in presence of fixed β-lactams, E. coli ESBL4 CTX-M-15” value (from here on “MIC … E. coli ESBL4 CTX-M-15”) [5] was “C (C represents the MIC in the presence of ≤4 g/mL of a β-lactamase inhibitor)”.
For COC(=O)NCC(=O)N[C@H]1Cc2cccc(C(=O)O)c2OB1O [Example 56, (R)-2-Hydroxy-3-(2-methoxycarbonylamino-acetylamino)-3,4-dihydro-2H-benzo[e][1,2]oxaborinine-8-carboxylicacid], the IC50 [1] was 1000 to 10000 nM, the “MIC … E. cl. 144200 p99 AmpC” value [2] was “C (C represents the MIC in the presence of ≤4 g/mL of a β-lactamase inhibitor)” and the IC50 (SHV-5 β-lactamase) was under 100 nM. For the same compound, the IC50 (p99 AmpC β-lactamase) was under 100 nM, the “MIC … K.P. A-1797 KPC-2 VIM-4” value [3] was “B (B represents the MIC in the presence of between 8 and 32 g/mL of a β-lactamase inhibitor)” and the “MIC of exemplary compounds … K.P. 156319 KPC-3” value [4] was “C (C represents the MIC in the presence of ≤4 g/mL of a β-lactamase inhibitor)”. For the same compound, the IC50 (KPC-2 β-lactamase) was 100 to 1000 nM and the “MIC … E. coli ESBL4 CTX-M-15” value [5] was “C (C represents the MIC in the presence of ≤4 g/mL of a β-lactamase inhibitor)”.
O=C(CNC(=O)c1ccccc1)N[C@H]1Cc2cccc(C(=O)O)c2OB1O [Example 60, (R)-3-(2-Benzoylamino-acetylamino)-2-hydroxy-3,4-dihydro-2H-benzo[e][1,2]oxaborinine-8-carboxylic acid] was tested, and the IC50 [1] was 10000 to 100000 nM, the “MIC … E. cl. 144200 p99 AmpC” value [2] was “C (C represents the MIC in the presence of ≤4 g/mL of a β-lactamase inhibitor)” and the IC50 (SHV-5 β-lactamase) was under 100 nM. For the same compound, the IC50 (p99 AmpC β-lactamase) was under 100 nM, the “MIC … K.P. A-1797 KPC-2 VIM-4” value [3] was “B (B represents the MIC in the presence of between 8 and 32 g/mL of a β-lactamase inhibitor)” and the “MIC of exemplary compounds … K.P. 156319 KPC-3” value [4] was “B (B represents the MIC in the presence of between 8 and 32 g/mL of a β-lactamase inhibitor)”. The IC50 (KPC-2 β-lactamase) was under 100 nM and the “MIC … E. coli ESBL4 CTX-M-15” value [5] was “C (C represents the MIC in the presence of ≤4 g/mL of a β-lactamase inhibitor)”.
